# “Also recorded” adds a separate entry of the source.
# Assays:
# rats = experiment: food and kaolin consumption and body weight in rats (semaglutide, tirzepatide); type: in vivo, Sprague-Dawley rat
# From the text: Adult male Sprague-Dawley rats (Charles River) weighing ~250 to 270 g (n = 45) at arrival were housed under a 12-hour/12-hour light/dark cycle in a temperature-controlled and humidity-controlled vivarium. Rats were individually housed in hanging wire-bottom cage with ad libitum access to chow diet (Purina Lab Diet 5001) or, when noted, to high-fat/high-sugar diet (60% fat diet, 12492, Research Diets) and tap water and had ad libitum access to kaolin pellets (Research Diets, K50001). Rats were exposed to kaolin for at least 5 days prior to measuring kaolin consumption in pica testing. Kaolin intake and food consumption were measured simultaneously as the presence of kaolin in the cage, and its subsequent ingestion, has usually negligible effects on the hypophagic and body weight–lowering effects of the treatments.
# GIPFA-085 (GIP-085), tirzepatide, and GLP-140 were designed and produced by Eli Lilly and Company. GIP-085, GLP-140, and semaglutide (Cayman Chemical) were dissolved in 40 mM tris-HCl buffer (pH 8) and 0.02% Tween 80. For the study in mice, all drugs were injected subcutaneously at a volume of 5 ml/kg of body weight. In rats, all drugs were injected intraperitoneally, at a volume of 1 ml/kg of body weight, except when noted. In shrews, all drugs were injected intraperitoneally at a volume of 10 ml/kg of body weight.
# In two separate cohorts of rats (n = 10 per group, body weight ~ 460 ± 9 g), food consumption, kaolin intake, and body weight were measured after an intraperitoneal administration of vehicle, semaglutide (10 and 100 nmol/kg), or tirzepatide (10 and 100 nmol/kg), respectively. Food and kaolin intake were measured at 3, 6, 24, and 48 hours postinjection, and body weight was measured at 0, 24, and 48 hours. For each drug, a within-subject paradigm was used, with each round of injections separated by 7 days.
# shrews = experiment: emesis, tirzepatide dose-response, shrews; type: in vivo, Suncus murinus; conditions: 10, 100 and 1000 nmol/kg ip; 120 min; n = 9 per group
# From the text: Adult male shrews (S. murinus) weighing ~50 to 80 g (n = 84 total) were bred and maintained in the De Jonghe Lab (University of Pennsylvania). These animals were offspring from a colony previously maintained at the University of Pittsburgh Cancer Institute (C. Horn); a Taiwanese strain was derived from stock originally supplied by the Chinese University of Hong Kong. Shrews were singly housed in plastic cages (37.3 cm by 23.4 cm by 14 cm, Innovive) under a 12-hour/12-hour light/dark cycle in a temperature-controlled and humidity-controlled environment. Animal were fed ad libitum with a mixture of feline (75%, Laboratory Feline Diet 5003, Lab Diet) and mink food (25%, High Density Ferret Diet 5LI4, Lab Diet) and had ad libitum access to tap water except where noted.
# We then evaluated the emetogenic actions of tirzepatide (10, 100, and 1000 nmol/kg) or vehicle in a different cohort of shrews (n = 9). The animals were habituated to the experimental conditions as described above. Treatments were separated by 7 days. Emetic episodes were recorded and quantified as described above.
# patients = conditions: human, in vivo; cited from earlier work
Molecule,"kaolin intake (rats; 100 nmol/kg ip, n = 10 per group, vs vehicle)","kaolin consumption, semaglutide vs tirzepatide (rats; 100 nmol/kg ip, n = 10 to 20 per group)","kaolin consumption vs vehicle, tirzepatide (rats; tirzepatide, rats (dose not stated at this place))",emesis (shrews),patients reporting nausea (patients)
CC[C@H](C)[C@H](NC(=O)[C@H](CC(C)C)NC(=O)[C@H](Cc1c[nH]c2ccccc12)NC(=O)[C@H](CCC(N)=O)NC(=O)[C@@H](NC(=O)[C@H](Cc1ccccc1)NC(=O)[C@H](C)NC(=O)[C@H](CCCCNC(=O)COCCOCCNC(=O)COCCOCCNC(=O)CC[C@H](NC(=O)CCCCCCCCCCCCCCCCCCC(=O)O)C(=O)O)NC(=O)[C@H](CCC(N)=O)NC(=O)[C@H](C)NC(=O)[C@@H](NC(=O)[C@H](CCCCN)NC(=O)[C@H](CC(=O)O)NC(=O)[C@H](CC(C)C)NC(=O)C(C)(C)NC(=O)[C@@H](NC(=O)[C@H](CO)NC(=O)[C@H](Cc1ccc(O)cc1)NC(=O)[C@H](CC(=O)O)NC(=O)[C@H](CO)NC(=O)[C@@H](NC(=O)[C@H](Cc1ccccc1)NC(=O)[C@@H](NC(=O)CNC(=O)[C@H](CCC(=O)O)NC(=O)C(C)(C)NC(=O)[C@@H](N)Cc1ccc(O)cc1)[C@@H](C)O)[C@@H](C)O)[C@@H](C)CC)[C@@H](C)CC)C(C)C)C(=O)N[C@@H](C)C(=O)NCC(=O)NCC(=O)N1CCC[C@H]1C(=O)N[C@@H](CO)C(=O)N[C@@H](CO)C(=O)NCC(=O)N[C@@H](C)C(=O)N1CCC[C@H]1C(=O)N1CCC[C@H]1C(=O)N1CCC[C@H]1C(=O)N[C@@H](CO)C(N)=O [tirzepatide],causes significant kaolin intake,induces less kaolin consumption in rats compared to equipotent doses of semaglutide,still significantly elevated compared to vehicle-treated animals,complete absence of emesis; also recorded: no emesis occurred; also recorded: complete absence of any emetic episode,
AMG 133: bispecific molecule engineered by conjugating a GIPR antagonizing antibody with a GLP-1R agonist,,,,,100%

# — paper PMC12175907 (Science Advances, 2025)
